US20120189546A1, “Radiolabelling Method Using Cycloalkyl Groups” (BAYER PHARMA AKTIENGESELLSCHAFT, priority 2009, published 2012)
Several values for one entry are separate records, joined by “and”; a condition that tells them apart may be missing. Identical values can stand only once.

How the values were obtained:
LAT1 = target: T1, LAT1 (Homo sapiens, UniProt Q01650); assay: [H-3]-D-Tyrosine efflux experiment in A549 cells (LAT1 substrate test); assay type: cell-based; settings: A549 cells preloaded with [H-3]-D-Tyrosine, 100 μM cold compound, 0.7% without compound
T1 construct: endogenous in cells; host or cells: A549 human lung carcinoma cells
T1 sequence (Q01650 whole entry): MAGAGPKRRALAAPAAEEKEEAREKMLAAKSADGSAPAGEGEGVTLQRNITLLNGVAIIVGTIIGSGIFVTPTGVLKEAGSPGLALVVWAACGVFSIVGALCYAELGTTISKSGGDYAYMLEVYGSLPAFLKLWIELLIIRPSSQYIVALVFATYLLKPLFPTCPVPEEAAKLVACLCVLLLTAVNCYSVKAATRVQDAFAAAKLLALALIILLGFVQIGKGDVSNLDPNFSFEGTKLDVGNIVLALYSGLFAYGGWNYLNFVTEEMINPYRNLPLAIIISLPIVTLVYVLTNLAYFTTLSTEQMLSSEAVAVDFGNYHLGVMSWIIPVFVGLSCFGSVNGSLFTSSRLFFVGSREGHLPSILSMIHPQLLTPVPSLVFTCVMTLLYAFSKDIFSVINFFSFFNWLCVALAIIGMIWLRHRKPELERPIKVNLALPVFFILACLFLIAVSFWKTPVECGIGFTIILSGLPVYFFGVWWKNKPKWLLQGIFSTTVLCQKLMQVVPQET
T1 sequence (P08195 102-630 partner): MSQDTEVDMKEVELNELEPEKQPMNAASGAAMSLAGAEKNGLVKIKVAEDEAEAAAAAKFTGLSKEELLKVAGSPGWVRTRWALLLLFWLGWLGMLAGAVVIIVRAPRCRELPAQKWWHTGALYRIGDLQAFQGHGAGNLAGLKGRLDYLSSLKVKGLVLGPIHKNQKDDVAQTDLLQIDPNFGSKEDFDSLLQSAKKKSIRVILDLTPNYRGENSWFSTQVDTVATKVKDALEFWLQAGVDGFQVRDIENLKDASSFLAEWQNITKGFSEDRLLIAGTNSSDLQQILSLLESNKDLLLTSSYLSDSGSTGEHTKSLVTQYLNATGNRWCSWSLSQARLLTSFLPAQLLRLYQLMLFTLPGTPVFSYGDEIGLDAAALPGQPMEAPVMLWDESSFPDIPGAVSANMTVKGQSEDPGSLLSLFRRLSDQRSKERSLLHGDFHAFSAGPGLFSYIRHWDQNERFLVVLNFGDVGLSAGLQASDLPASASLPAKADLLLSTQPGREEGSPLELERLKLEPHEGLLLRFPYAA
Description: To study if the compounds are transported by LAT1, the cells were incubated with 37 kBq of the radiotracer [H-3]-D-Tyrosine and was incubated with cells at 37° C. in a humidified atmosphere containing 5% CO2 for 30 min. Then the cells were washed with PBS and fresh assay buffer was added to the cells containing 100 μM concentration of cold compound and the cells were incubated for another 30 min. To stop tracer efflux the incubation buffer was removed after 30 min, the cells were washed and lysed with 1 M sodium hydroxide. Subsequently the amount of radioactivity in the cell lysate was determined in a scintillation counter.
(§1) Aliquots of the applied tracer amount were measured in a gamma counter to determine the total amount in counts per minute (cpm) together with the samples to correct for tracer decay. Cell numbers per well were determined after detaching cells by trypsinization in 3 wells prior to start of the assay and counted in cell chamber under a microscope. The mean of cells was calculated. To compare tracer uptake between different studies the cell number was normalized to 100,000 cells.

[1] = tested on: A549 human lung carcinoma cell line; assay: [H-3]-D-Tyrosine uptake competition in A549 cells; assay type: cell-based; settings: 30 min, 100 μM competitor, 2.8% without competitor
Description: Cells were seeded 1-2 days prior to the assay and grown until sub-confluency in 48 well plates. Prior to the assay the cell culture medium was removed and the cells were washed with phosphate buffered saline (PBS)+0.1% Bovine serum albumin (BSA). After adding the assay buffer (PBS+0.1% BSA), 37 KBq of the radiotracer [H-3]-D-Tyrosine was added immediately and was incubated with cells at 37° C. in a humidified atmosphere containing 5% CO2 for 30 min. For investigation of transporter characteristics and competitions, the cells were coincubated with 100 μM F-DOPA or compound 29 (FCBT) for 30 min to monitor radioactivity uptake. To stop tracer uptake the incubation buffer was removed after 30 min, the cells were washed and lysed with 1 M sodium hydroxide. Subsequently the amount of radioactivity in the cell lysate was determined in a scintillation counter.
as §1

[2] = In vitro plasma stability, rat plasma; assay type: in vitro ADME; settings: 0.3 μM
Description: (§2) This investigation determines the stability of test compound in plasma of different species. […] Samples were freezed at −20° C. overnight, subsequently centrifuged for 15 minutes at 3000 rpm and the supernatant was analyzed with an Agilent 1200 HPLC-system with LCMS/MS detection.
(§3) The stability of the test compound was quantified by comparison of the remaining amount at the different time points with the amount of the 0 min sample and is expressed in % of initial concentration.

rat hepatocytes = assay: In vitro metabolic stability in rat hepatocytes with calculation of hepatic in vivo blood clearance; assay type: in vitro ADME; settings: male Wistar rat hepatocytes, 0.5x10^6 cells/ml, 1 μM test compound
Description: Hepatocytes from Han Wistar rats were isolated via a 2-step perfusion method. After perfusion, the liver was carefully removed from the rat: the liver capsule was opened and the hepatocytes were gently shaked out into a Petri dish with ice-cold WME. The resulting cell suspension was filtered through sterile gaze in 50 mL falcon tubes and centrifuged at 50×g for 3 min at room temperature. The cell pellet was resuspended in 30 mL WME and centrifuged through a Percoll® gradient for 2 times at 100×g. The hepatocytes were washed again with Williams' medium E (WME) and resuspended in medium containing 5% FCS. Cell viability was determined by trypan blue exclusion.
For the metabolic stability assay liver cells were distributed in WME containing 5% FCS to glas vials at a density of 0.5×10^6 vital cells/ml. The test compound was added to a final concentration of 1 μM. During incubation, the hepatocyte suspensions were continuously shaken and aliquots were taken at 2, 8, 16, 30, 45 and 60 min, to which equal volumes of cold methanol were immediately added. Samples were freezed at −20° C. overnight, subsequently centrifuged for 15 minutes at 3000 rpm and the supernatant was analyzed with an Agilent 1200 HPLC-system with LCMS/MS detection.
The half-life of a test compound was determined from the concentration-time plot. From the half-life the intrinsic clearances were calculated.

[3] = In vitro plasma stability, human plasma; assay type: in vitro ADME; settings: for MEAN [%] / % v. 0 h: human female plasma, 0.3 μM; for % v. 0 h: single values
Description: as §2, §3

A549 cells = assay: Cell uptake of [18F] compound 32b into A549 cells; assay type: cell-based, human
Description: We studied the uptake of the radiolabeled [^18F] compound 32b into A549 cells, 90000 A549 cells were seeded per cavity of a 48 well incubation plate (Becton Dickinson; Cat. 353078) and incubated for 2 days in RPMI 1640 with GlutaMAX (Invitrogen; Cat. 31331) medium supplemented with 10% FCS in an incubator (37° C., 5% CO2). Cells were washed once with PBS and then incubated for 10-30 minutes at 37° C. in PBS with 0.25 MBq of compound 32b ([^18F] labeled). After incubation, the cells were washed once with cold PBS, lysed with 1M NaOH, and finally lysates were measured in a gamma counter.

N[C@@H](Cc1cc(O)c(O)cc1[18F])C(=O)O [F-DOPA, reference compound]
amount of D-Tyrosine which remained in the cell after 30 min (efflux) (LAT1): 0.11 % applied dose/100.000 cells
uptake of the applied [H-3]-D-Tyrosine with compound present in the assay buffer [1]: 1.8%

N[C@@H](Cc1ccc(O[C@H]2C[C@@H](F)C2)cc1)C(=O)O.O=C(O)C(F)(F)F [Compound 29, O-(cis-3-Fluorocyclobutyl)-L-tyrosine trifluoroacetate salt]
amount of D-Tyrosine which remained in the cell after 30 min (efflux) (LAT1): 0.08 % applied dose/100.000 cells
MEAN [%] ([2]; male, rat, 2 min): 100%
% v. 0 h ([2]; male, rat, 30 min): 124%
MEAN [%] ([2]; male, rat, 30 min): 124%
MEAN [%] ([2]; male, rat, 60 min): 133%
uptake of the applied [H-3]-D-Tyrosine with compound present in the assay buffer [1]: 1.1%
CL blood, ws, hep (rat hepatocytes): 7.17 mL/min/kg
MEAN [%] ([3]; 2 min incubation): 100%
% v. 0 h ([3]; 2 min incubation, trifluoroacetate salt): 96% and 104%
MEAN [%] ([3]; 30 min incubation): 111%
% v. 0 h ([3]; 30 min incubation, trifluoroacetate salt): 121% and 100%
MEAN [%] ([3]; 60 min incubation): 104%
% v. 0 h ([3]; 60 min incubation, trifluoroacetate salt): 104% and 105%
degradation in human plasma after 60 min [3]: did not show any degradation

N[C@@H](Cc1ccc(O[C@H]2C[C@@H]([18F])C2)cc1)C(=O)O [Compound 32b, O-(cis-3-[^18F]Fluorocyclobutyl)-L-tyrosine]
maximum uptake (A549 cells; A549 cells, after 30 min, 0.25 MBq in PBS, 37° C.): 5.87 % applied dose/10^6 cells
accumulation in tumor cells (A549 cells; all tested tumor cells): good accumulation

N[C@@H](Cc1ccc(OCCF)cc1)C(=O)O [O-(2-[^19F]Fluoroethyl)-L-tyrosine, reference compound]
MEAN [%] ([2]; rat male plasma, 1 min incubation): 100%
% v. 0 h ([2]; rat male plasma, 1 min incubation, single values, listed as FET): 92% and 108%
MEAN [%] ([2]; rat male plasma, 30 min incubation): 109%
% v. 0 h ([2]; rat male plasma, 30 min incubation, single values, listed as FET): 110% and 109%
MEAN [%] ([2]; rat male plasma, 60 min incubation): 119%
% v. 0 h ([2]; rat male plasma, 60 min incubation, single values, listed as FET): 120% and 118%
MEAN [%] ([3]; 1 min incubation): 100%
% v. 0 h ([3]; 1 min incubation, listed as FET): 101% and 99%
MEAN [%] ([3]; 30 min incubation): 103%
% v. 0 h ([3]; 30 min incubation, listed as FET): 101% and 105%
MEAN [%] ([3]; 60 min incubation): 50%
% v. 0 h ([3]; 60 min incubation, listed as FET): 52% and 49%
degradation in human plasma after 60 min [3]: 50%
